Data reported in PMC6355826 (EBioMedicine, 2018).

Experiments:
[1] = biological target: T1, methionine adenosyltransferase 2A (MAT2A) (Homo sapiens, UniProt P31153); experiment: HPLC SAM synthesis assay with purified MAT2A; format: biochemical
[2] = biological target: T1, methionine adenosyltransferase 2A (MAT2A); experiment: microscale thermophoresis; format: binding

T1 sequence (P31153 whole entry): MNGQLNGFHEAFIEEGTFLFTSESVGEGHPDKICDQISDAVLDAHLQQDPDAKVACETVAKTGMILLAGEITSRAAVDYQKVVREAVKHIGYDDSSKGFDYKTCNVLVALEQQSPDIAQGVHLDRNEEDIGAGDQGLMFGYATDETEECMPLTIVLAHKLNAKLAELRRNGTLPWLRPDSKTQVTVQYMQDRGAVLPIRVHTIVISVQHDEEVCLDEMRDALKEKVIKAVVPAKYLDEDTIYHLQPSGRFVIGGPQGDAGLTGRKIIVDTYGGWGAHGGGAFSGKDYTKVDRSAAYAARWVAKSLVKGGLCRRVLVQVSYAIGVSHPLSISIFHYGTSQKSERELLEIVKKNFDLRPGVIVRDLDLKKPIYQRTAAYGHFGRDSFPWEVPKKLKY

Kd [2]	Compound	HPLC SAM synthesis assay with purified MAT2A [1]
	Nc1ncnc2c1ncn2[C@@H]1O[C@H](COP(=O)(O)OP(=O)(O)OP(=O)(O)O)[C@@H](O)[C@H]1O [ATP]	MAT2A was incubated with its substrates which were methionine and ATP, and SAM was formed
0.129 ± 0.028 µM	CC(=O)O[C@@H]1CC[C@@]2(C)[C@@H](CC[C@]3(C)[C@@H]2C(=O)C=C2[C@@H]4[C@@H](C)[C@H](C)CC[C@]4(C)CC[C@]23C)[C@@]1(C)C(=O)O [compound 1, AKBA]	
	CSCC[C@H](N)C(=O)O [methionine]	MAT2A was incubated with its substrates which were methionine and ATP, and SAM was formed
